Source: US20090076067A1, “PHARMACEUTICAL COMPOSITION COMPRISING AZARHODACYANINE COMPOUND AS ACTIVE INGREDIENT” (priority 2005, published 2009)

Tests used:
[1] = tested on: Plasmodium berghei NK 65 strain; assay: animal or person; assay type: in vivo; conditions: for Survival days (mean survival days, treatment group minus control group) / Recovery Rate (suppression): 4 days; for Recovery Rate (suppression): P. berghei infected ICR mice; for Acute toxicity in treated mice: 25 mg/kg/day dose
Text: For a test to evaluate therapeutic effect of the compound, 4-day suppressive test which is commonly used for in vivo test to evaluate activity of anti-malaria compound was used. In this experiment, rodent malaria protozoa (Plasmodium berghei NK 65 strain) were used. The infected blood was collected from 5-weeks age (SPF) ICR strain male mouse which were infected intraperitoneally and successively cultured. From the caudal vein of the infected mouse, blood was collected to calculate infection rate. After confirming that infection rate was adequately elevated (10% to 20% infection), the malaria infected blood was collected from the heart of the mouse. The infection rate and count of the red blood cells (cells/mL) were calculated. The infected red blood cell was diluted with PBS buffer to achieve […] protozoa per 0.2 mL dose. The infected cells were injected to the caudal vein of uninfected mouse (ICR strain, male, 5-weeks age) to cause infection. Five mice were made into one group, and the test compound was administered in predefined concentration. From 2 hours after infection, the compound was administered every 24 hours for straight 4 days.
The compound of the invention to be used in this test was dissolved in saline (Otsuka Pharmaceutical Co., Ltd.) to obtain test solution of predefined concentration. When the compound was not dissolved in saline, it was dissolved in SSV (saline containing 0.5% sodium=carboxymethyl cellulose, 0.5% benzyl alcohol, 0.4% Tween 80) to prepare test solution. For the control group (non-treatment group), only saline (Otsuka) was administered. Positive controls S-1 to S-5 were dissolved in saline (Otsuka) or SSV in predetermined concentration to prepare test solution. When the compound was not dissolved in saline, it was dissolved in SSV. After measuring weight of each mouse, the dose for each mouse was calculated to achieve 5.0 to 40 mg concentration for weight1 kg.
Five mice were made into one group, and the test compound was administered intraperitoneally at predefined concentration. From 2 hours after infection, the compound was administered every 24 hours for straight 4 days. Subsequent to the 24 hours after last treatment, blood was collected from the tail of the mouse to prepare thin layer smear in order to count malaria protozoa infection in the treatment group and the control group under microscope. The mice showing maximum value and minimum value were excluded from the average calculation (average was calculated for three mice), to determine malaria protozoa infection rate (Parasitemia).
Using malaria protozoa infection rate thus calculated, recovery rate obtained from the test compound (suppression) was determined.
Recovery rate: suppression(%)=(b−a)/b×100 a: Protozoa infection rate in the treatment group b: Protozoa infection rate in the control group Mean survival days: MSD(day)=c−d c: Average days from the initial treatment (date of malaria infection) to the date of death for the treatment group (5 mice) d: Average days from the date of malaria infection to the date of death for the non-treatment (control) group (5 mice) […]
Tables 5 to 7 illustrate the recovery rate (%) and survival days (day) of malaria infected mice treated with intraperitoneal injection of the test compound and the control compound at predefined concentration. The meaning of symbols in the table is as follows.

[2] = tested on: Plasmodium Falciparum k1 strain; assay: Chloroquine-resistant tropical malaria protozoa proliferation inhibition screening test; assay type: cell-based; conditions: chloroquine-resistant K1 strain; 3H-hypoxanthine uptake
Experimental: In this experiment, Plasmodium Falciparum k1 strain protozoa were used. The medium used in the experiment was filter-sterilized RPMI-1640 medium. To the medium human serum was added to achieve 5% concentration. The protozoa was cultured under condition of O2 concentration 3%, CO2 concentration 4%, N2 concentration 93%, and temperature 37° C.
The cultured malaria infected red blood cells were collected by centrifugation, diluted with non-infected red blood cells, to achieve initial infection rate 0.15%. The hematocrit was 2.5%.
To each well in a 96-well culture plate, 200 μL malaria infected culture was added, and either test solution containing test compound at predefined concentration or DMSO having no test compound was added. Each test solution was prepared in duplicate. After 48 hours culture under 37° C., hypoxanthine labeled with radioactive tritium (^3H) of 0.5 μCi was added to each well. After culturing under same condition for 24 hours, the product was collected on a glass fiber filter and washed. The intensity of radiation was measured by Beta plate liquid scintillation counter (Wallac Inc.), to determine malaria protozoa infection rate in test compound samples and control samples.
Using the malaria protozoa infection rate, the proliferation inhibition rate was calculated according to the following equation to determine 50% proliferation inhibition concentration (EC50).
Proliferation inhibition rate(%)={1−(b−a)/(c−a)}×100
a: initial infection rate b: infection rate of test compound solution c: infection rate of the control

[3] = tested on: Rat-derived L6 cells (rat skeletal myoblast cell); assay: Rat L6 cell proliferation inhibition test; assay type: cell-based; conditions: Table 1, 72 hours, Alamar Blue
Experimental: Rat-derived L6 cells (rat skeletal myoblast cell) were used for this test. […] The sample was cultured under CO2 concentration 5% and temperature 37° C. Either the composition of the invention or control was dissolved into DMSO, to prepare test solutions having predefined concentration.
The samples were precultured until logarithmic growth phase was reached. Then the culture was transferred to each well in a 96-well culture plate, and either test solution containing test compound at predefined concentration or DSMO without compound was added. The test solution was duplicated.
The plate was cultured in an incubator for 72 hours, to examine proliferation inhibition activity. The activity was examined as follows. Alamar Blue water solution 10 μL was added to each well, and culture was continued for 2 hours. Next, the culture plate was mounted on a fluorescence microplate reader (Spectramax Gemeni XS; Molecular Devices Corporation, U.S.), and irradiated with excitation wavelength 536 nm to determine fluorescence at 588 nm. The survival rate of L6 cells in the test solution sample and control sample was calculated.
Proliferation inhibition rate(%)={(C−A)/(B−A)}×100
A: Initial cell count B: Cell count in control after 3 days C: Cell count in test solution after 3 days

[4] = Plasmodium berghei, ip, 96 h, read-out: Recovery Rate (suppression)
[5] = dose 25 mg/kg/d intraperitoneally
[6] = dose 5.0 mg/kg/d intraperitoneally

CCN1C(=O)/C(=C2\C=Cc3ccccc3N2C)S/C1=N\c1cccc[n+]1C [Compound A-14]
inhibition in vivo at 10 mg/kg/day [1, 4]: 64.5%

CCN1C(=O)/C(=C2\C=CC=CN2C)S/C1=N\c1cc[n+](C)c2cc(Cl)ccc12 [Compound A-15]
inhibition in vivo at 25 mg/kg/day [1, 4]: 60.3%
Survival days (mean survival days, treatment group minus control group) [1, 5]: 2.0 days

CCn1c(=O)/c(=C2\C=CC=CN2C)s/c1=C1\S/C(=N\c2sc3cc(Cl)ccc3[n+]2C)N(c2ccccc2)C1=O [Compound B-11]
inhibition in vivo at 25 mg/kg/day [1, 4]: 82.7%

CCn1c(=O)/c(=C2\C=CC=CN2C)s/c1=C1\S/C(=N\c2scc(-c3ccc(Cl)cc3)[n+]2C)N(c2ccccc2)C1=O [Compound B-13]
inhibition in vivo at 25 mg/kg/day [1, 4]: 95.6%

CCn1c(=O)/c(=C2\C=CC=CN2C)s/c1=C1\S/C(=N\c2sc3cc(Cl)ccc3[n+]2C)N(Cc2ccccc2)C1=O [Compound B-16]
inhibition in vivo at 20 mg/kg/day [1, 4]: 97.4%

CCn1c(=O)/c(=C2\C=CC=CN2C)s/c1=C1\S/C(=N\c2sc3cc(Cl)ccc3[n+]2C)N(c2ccc(OC)cc2)C1=O [Compound B-17]
inhibition in vivo at 25 mg/kg/day [1, 4]: 73.1%
Survival days (mean survival days, treatment group minus control group) [1, 5]: 6.8 days

CCn1c(=O)/c(=c2\nc3c(o2)=CC=CN3C)s/c1=C1\S/C(=N\c2sc3cc(Cl)ccc3[n+]2C)N(Cc2ccccc2)C1=O [Compound B-18]
Survival days (mean survival days, treatment group minus control group) [1, 5]: 7.0 days
Recovery Rate (suppression) [1, 5]: 22.39%

CCN1C(=O)/C(=c2/s/c(=C3/C=CC=CN3C)c(=O)n2CC)S/C1=N\c1scc[n+]1C [Compound B-19]
EC50 P. falciparum K1 [2]: 0.0166 µg/mL
EC50 cytotoxicity L6 [3]: 27.92 µg/mL

CCN1C(=O)/C(=c2/s/c(=c3/nc4c(o3)=CC=CN4C)c(=O)n2CC)S/C1=N\c1scc[n+]1C [Compound B-20]
EC50 P. falciparum K1 [2]: 0.017 µg/mL
EC50 cytotoxicity L6 [3]: 69.34 µg/mL
Survival days (mean survival days, treatment group minus control group) [1, 5]: 6.3 days
Recovery Rate (suppression) [1, 5]: 56.1%

CCn1c(=O)/c(=C2\C=CC=CN2C)s/c1=C1\S/C(=N\c2scc[n+]2C)N(Cc2ccccc2)C1=O [Compound B-21]
Survival days (mean survival days, treatment group minus control group) [1, 5]: 7.0 days
Recovery Rate (suppression) [1, 5]: 80.4%

CCn1c(=O)/c(=C2\SCCN2C)s/c1=C1\S/C(=N\c2scc[n+]2C)N(Cc2ccccc2)C1=O [Compound B-23]
Survival days (mean survival days, treatment group minus control group) [1, 5]: 7.0 days
Recovery Rate (suppression) [1, 5]: 85.1%

CCn1c(=O)/c(=C2\SCCN2C)s/c1=C1\S/C(=N\c2sc3cc(Cl)ccc3[n+]2C)N(c2ccc(OC)cc2)C1=O [Compound B-26]
Survival days (mean survival days, treatment group minus control group) [1, 5]: 2.0 days
Recovery Rate (suppression) [1, 5]: 64.3%

CCN1C(=O)/C(=c2/s/c(=C3/SCCN3C)c(=O)n2CC)S/C1=N\c1scc[n+]1C [Compound B-27]
Survival days (mean survival days, treatment group minus control group) [1, 5]: 2.0 days
Recovery Rate (suppression) [1, 5]: 55.4%

CCN1C(=O)/C(=c2/s/c(=C3/SCCN3C)c(=O)n2CC)S/C1=N\c1sc2ccccc2[n+]1C [Compound B-31]
Survival days (mean survival days, treatment group minus control group) [1, 5]: 1.7 days
Recovery Rate (suppression) [1, 5]: 90.6%

C=CCN1C(=O)/C(=c2/s/c(=C3/C=CC=CN3C)c(=O)n2CC)S/C1=N\c1sc2cc(Cl)ccc2[n+]1C [Compound B-38]
Recovery Rate (suppression) [1, 5]: 95.7%

C=CCN1C(=O)/C(=c2/s/c(=C3/C=CC=CN3C)c(=O)n2CC)S/C1=N\c1scc[n+]1C [Compound B-40]
EC50 cytotoxicity L6 [3]: 27.38 µg/mL

C=CCN1C(=O)/C(=c2/s/c(=C3/SCCN3C)c(=O)n2CC)S/C1=N\c1scc[n+]1C [Compound B-41]
Survival days (mean survival days, treatment group minus control group) [1, 5]: 1.3 days
Recovery Rate (suppression) [1, 5]: 58.5%

CCN1C(=O)/C(=C/C=C2\Sc3ccccc3N2C)S/C1=N\c1sc2cc(Cl)ccc2[n+]1C [Compound C-2]
EC50 P. falciparum K1 [2]: 0.02495 µg/mL
EC50 cytotoxicity L6 [3]: 11.33 µg/mL
Recovery Rate (suppression) [1, 6]: 32.1%

CCN1C(=O)/C(=C/C=C2\Sc3ccccc3N2C)S/C1=N\c1c(O)ccc[n+]1C [Compound C-3]
Recovery Rate (suppression) [1, 6]: 43.9%

CCN1C(=O)/C(=C/C=C2\Sc3ccccc3N2C)S/C1=N\c1scc(-c2ccc(Cl)cc2)[n+]1C [Compound C-4]
inhibition in vivo at 5 mg/kg/day [1, 4]: 37.9%

CCn1c(=O)/c(=C2\Sc3ccccc3N2C)s/c1=C\c1cccc[n+]1CC [Compound S-1, reference compound]
inhibition in vivo at 10 mg/kg/day [1, 4]: 30%
Toxicity noted [1, 5]: toxic

C=CCn1c(=O)/c(=C2\Sc3ccccc3N2C)s/c1=C\c1cccc[n+]1C [Compound S-2, reference compound]
Acute toxicity in treated mice [1]: caused death
inhibition in vivo at 10 mg/kg/day [1, 4]: 27%

CCn1c(=O)/c(=C2\Sc3ccc4ccccc4c3N2C)s/c1=C\c1cccc[n+]1C [Compound S-4, reference compound]
Acute toxicity in treated mice [1]: caused death
inhibition in vivo at 5 mg/kg/day [1, 4]: 17.1%
inhibition in vivo at 10 mg/kg/day [1, 4]: 36%
Toxicity noted [1, 5]: toxic

CCn1c(=O)/c(=c2/s/c(=C3/Sc4ccccc4N3C)c(=O)n2CC)s/c1=C\c1sc2ccccc2[n+]1C [Compound S-5, reference compound]
inhibition in vivo at 5 mg/kg/day [1, 4]: 41%

C=CCn1c(=O)/c(=C2\C=CC=CN2C)s/c1=c1\s/c(=C\c2cccc[n+]2C)n(CC)c1=O [Compound S-6, reference compound]
inhibition in vivo at 50 mg/kg/day [1, 4]: 25.9%
Survival days (mean survival days, treatment group minus control group) ([1]; dose 50 mg/kg/d intraperitoneally): 0 days

C=C[C@H]1C[N@@]2CC[C@H]1C[C@H]2[C@H](O)c1ccnc2ccc(OC)cc12 [Quinine, reference compound]
inhibition in vivo at 10 mg/kg/day [1, 4]: 18.6%
Survival days (mean survival days, treatment group minus control group) ([1]; dose 10 mg/kg/d intraperitoneally): 1.0 days
